Source: patent publication EP0125695B1, “2-Bromo-1-tetralone derivatives” (KIRIN BEER KABUSHIKI KAISHA, priority 1983, dated 1984)
≈ marks a conversion by molar mass, not a printed value.

Columns and labels:
Candida albicans = experiment: Minimum inhibitory concentration on Sabouraud's agar medium (Yamano et al. method); format: cell-based; settings: 168 h, agar plate, 27°C for 7 days
Method: (§1) Sabouraud's agar medium was used as a culture medium. (A liquid culture medium was prepared from the same ingredients except for agar).
(§2) This culture medium was prepared by dissolving the above ingredients under heat, and the medium thus prepared was sterilized under the conditions of 1.05 bar (15 Ibs.lin^2) for 15 minutes.
(§3) The microorganisms to be tested were fungi of the species Trichophyton mentagrophytes (A), Trichophyton asteroides (B) and Candida a/bicans (C). Each of these microorganisms was cultivated on the corresponding slant medium at 27°C for 7 days. A loopful of each of the microorganisms (A), (B) and (C) was triturated in a mortar, charged into a test tube containing 10 ml of physiological saline solution, and suspended therein with a thermomixer. Each of the suspensions thus prepared was used in the test.
(§4) 9 ml of the culture medium and 1 ml of a dilute sample were thoroughly admixed with each other in a Petri dish to prepare an agar plate, which was then streaked with the suspension containing each of the microorganisms to be tested by using a sterile platinum wire loop. The microorganisms (A), (B) and (C) thus inoculated on the agar plates were cultivated at 27°C for 7 days, and thereafter the MIC thereof was determined.

[1] = tested on: Trichophyton mentagrophytes; experiment: as above; format: cell-based; settings: 168 h, agar plate, 27°C for 7 days
Method: as §1, §2, §3, §4

Trichophyton asteroides = experiment: as above; format: cell-based; settings: 168 h, agar plate, 27°C for 7 days
Method: as §1, §2, §3, §4

P388 leukemia = experiment: Antitumor activity against intraperitoneally transplanted P388 leukemia in mice; format: in vivo; settings: given 1 day and 5 days after transplantation of P388 leukemia 1 x 10^6 cells/mouse i.p., survival days of saline control group = 100
Method: For example, into CDF, mice were intraperitoneally transplanted P388 leukemia 1 x 10^6 cells/mouse as a suspension, and 2-bromo-6,7-dichloro-1-tetralone which is typical of the compounds of the present invention was administered to the mice 1 day and 5 days respectively after the transplantation. The effect of the test compound was evaluated in terms of the increase of life span (%) as calculated by determining the survival days of the control group consisting of mice administered with physiological saline solution as 100.

Toxicity (LD50) to mice = settings: mouse, in vivo

Compound	MIC (Candida albicans)	MIC [1]	MIC (Trichophyton asteroides)	Survival time relative to saline control (T/C, control = 100) (P388 leukemia; Dose 10.0 mg/kg/day)	Survival time relative to saline control (T/C, control = 100) (P388 leukemia; Dose 50.0 mg/kg/day)	LD50 (Toxicity (LD50) to mice; Oral)	LD50 (Toxicity (LD50) to mice; ip, Intraperitoneal)	LD50 (Toxicity (LD50) to mice; sc, Subcutaneous)
O=C1c2cc(Cl)cc(Cl)c2CCC1Br (centres unmarked) [2-bromo-5,7-dichloro-1-tetralone]	1.56 µg/mL (≈ 5.31 µM)	1.56 µg/mL (≈ 5.31 µM)	1.56 µg/mL (≈ 5.31 µM)	–	–	–	–	–
O=C1c2cc(Cl)c(Cl)cc2CCC1Br (centres unmarked) [2-bromo-6,7-dichloro-1-tetralone]	1.56 µg/mL (≈ 5.31 µM)	0.78 µg/mL (≈ 2.65 µM)	0.78 to 1.56 µg/mL (≈ 2.65 to 5.31 µM)	129%	140%	> 1500 mg/kg	820 mg/kg	> 1500 mg/kg
O=C1c2cc(F)ccc2CCC1Br (centres unmarked) [2-bromo-7-fluoro-1-tetralone]	6.25 µg/mL (≈ 25.7 µM)	3.13 µg/mL (≈ 12.9 µM)	3.13 µg/mL (≈ 12.9 µM)	–	–	–	–	–
COC1=CC(=O)C[C@@H](C)[C@]12Oc1c(Cl)c(OC)cc(OC)c1C2=O [griseofulvin, reference compound]	> 200 µg/mL	6.25 µg/mL (≈ 17.7 µM)	6.25 µg/mL (≈ 17.7 µM)	–	–	–	–	–
